According to patent publication US20220409510A1, “Polypeptides And Methods For Improving Skin Conditions” (Interk Peptide Therapeutics Limited, priority 2018, published 2022):

Legend:
[1] = test system: CREB-S133; experiment: CREB phosphorylation in primary keratinocytes after solar simulated UV-irradiation (western blot); type: cell-based; conditions: 0.1, 1 and 5 μM added immediately after ssUV, FIG. 3A
Procedure: The influence of the polypeptide IK34720 (SEQ ID NO: 3) on CREB phosphorylation was assessed using the following protocol.
Keratinocytes were harvested and cultured as previously described (Gupta et al., J Invest Dermatol, 2007, 127(3):707-215). Keratinocytes, (passages 1-5) from 3 independent donors were used in the experiments illustrated in FIG. 3.
Positive control treatment (denoted “D” in FIG. 3) was prepared by solubilizing Calcitriol (1,25-dihydroxyvitamin D3 (1,25(OH)2D3)—Cayman Chemical, Mich., USA) in 100% spectroscopic ethanol (Merck, Darmstadt, Germany) and the final concentration was determined by spectroscopy (NanoDrop 2000, Thermo Fisher Scientific, Mass., USA). The polypeptide IK34720 (SEQ ID NO: 3) was solubilised in phosphate buffered saline (PBS) to a concentration of 1 mM at pH 7.2. A vehicle (denoted as “V” in FIG. 3) constituting 0.1% (v/v) spectroscopic ethanol and 0.1% (v/v) PBS was prepared for use as a negative control.
Cultured cells were irradiated by solar simulated UV-irradiation (ssUV) using an Oriel 1000W xenon-arc lamp (Stratford, Conn., USA). Irradiation was administered at an energy level of 400 mJ/cm^2 for UVB and 3600 mJ/cm^2 for UVA (total 4000 mJ/cm^2), measured by an OL754 radiometer (Optronics Laboratories Inc., Orlando, Fla.). This dosage equates to approximately 4 min irradiation of the sun at 12 noon in October in Sydney, Australia. […]

[2] = test system: 8-OHdG formation in the skin; experiment: UV-induced oxidative stress (8-OHdG/8oxodG immunohistochemistry) in mouse skin; type: in vivo, Skh:hr1 hairless mice; conditions: topical immediately after 3 MED UVR; IK34720 20, 100 or 200 μg, Calcitriol 11.4 pmol/cm2; 3 h post-UVR; vs vehicle
Procedure: 8-hydroxy-2′-deoxyguanosine or 8-oxo-7,8-dihydro-2′-deoxyguanosine (8-OHdG/8-oxodG) is one of the predominant forms of free radical-induced in oxidative lesions with the concentrations of 8-OHdG within a cell being a measurement of oxidative stress. The role of the polypeptide IK34720 (SEQ ID NO: 3) in UV-induced oxidative stress was assessed using the following protocol.
Female Skh:hr1 hairless mice were exposed to solar simulated UV-irradiation (UVR) by exposure to one fluorescent UVB tube (Philips TL40W 12R/S, Eindhoven, The Netherlands) in combination with 6 UVA tubes (Hitachi 40W F40T 10/BL, Tokyo, Japan). The UVA and UVB irradiation was filtered through a 0.125 mm cellulose acetate sheet (Grafix Plastics, Cleveland, Ohio) as previously described (Dixon KM et al., Biochem Mol Biol, 2007, 103(3-5):451-6). […]
Biopsies were taken from UV-irradiated dorsal skin 3 h post-UVR and fixed in Histochoice fixative (Amresco, Solon Ohio) for 6 h. […] Sections were subjected to routine hematoxylin and eosin staining for visualization of sunburn cells at 40× magnification, and the number of sunburn cells per linear millimetre of skin section recorded.
Levels of 8-oxo-2′-deoxyguanosine (8oxodG) indicative of oxidative stress were detected by immunohistochemistry and image analysis (Dixon KM et al., Cancer Prey Res 2011, 4(9):1485-94) as set out below. […]

[3] = test system: dermal fibroblasts; experiment: TBARS lipid peroxidation assay in UV irradiated dermal fibroblasts; type: cell-based; conditions: highest concentration (5 μM) of peptide; FIG. 19
Procedure: The ability of the polypeptide RSKAKNPLYRRRRRRRRR to alter UV-induced oxidative damage of cell-derived lipids was examined using the TBARS thiobarbituric acid-reactive substances (TBARS) lipid peroxidation assay.
After irradiation or sham-irradiation of dermal fibroblasts, supernatants (900 μL) were collected. In brief, 90 μL of butylated hydroxytoluene (2% w/w in ethanol) was added and samples kept frozen (−20° C.) until the TBARS assay. Petri dishes were washed twice with 1 mL of HBSS, cells scraped in 600 μL of water and 60 μL of 0.5% aqueous Triton X100 added to this solution, for protein determination carried out by the Lowry method (Lowry OH et al, J. Biol. Chem., 1951, 193:265-275). TBARS were fluorometrically assayed as described (Morlière P et al, Biochim. Biophys. Acta, 1991, 1084:261-268). Briefly, thawing samples were heated in the presence of thiobarbituric acid in acidic conditions, and TBARS extracted with 1-butanol and fluorometrically quantified (λexc=515 nm and λem=550 nm). Tetraethoxypropane, which quantitatively yields the malondialdehyde-thiobarbituric acid adduct in the assay conditions, was used for calibration. TBARS values, expressed in malondialdehyde (MDA) equivalents, were normalized to the cell protein for each Petri dish. Each TBARS determination was performed in triplicate (e.g., with three Petri dishes per data point).

**Q.** What does the source list for “RSKAKNPLYRRRRRRRRR [IK34720, 18-residue polypeptide: … with a C-terminal polyarginine region of 8 arginines]”?
**A.** UV-induced phosphorylation of CREB S-133 [1]: inhibits UV-induced phosphorylation of serine at position 133 of CREB; 8-OHdG formation in the skin [2]: inhibits 8-OHdG formation; significant difference in TRS (TBA reactive substances) between Sham and UV irradiation [3]: not seen
